This note sets out measurements from US20160137639A1, “TRIAZOLE-ISOXAZOLE COMPOUND AND MEDICAL USE THEREOF” (JAPAN TOBACCO INC., priority 2012, published 2016).

The target in assay [1] is T1, human RORγ (Homo sapiens, UniProt P51449).
T1 construct: human, NM_005060.3 and from Ser253 to Lys518; expressed in transfected cells; host or cells: CHO cells (transient co-transfection with pG5-Luc reporter)
T1 sequence (P51449 253-518): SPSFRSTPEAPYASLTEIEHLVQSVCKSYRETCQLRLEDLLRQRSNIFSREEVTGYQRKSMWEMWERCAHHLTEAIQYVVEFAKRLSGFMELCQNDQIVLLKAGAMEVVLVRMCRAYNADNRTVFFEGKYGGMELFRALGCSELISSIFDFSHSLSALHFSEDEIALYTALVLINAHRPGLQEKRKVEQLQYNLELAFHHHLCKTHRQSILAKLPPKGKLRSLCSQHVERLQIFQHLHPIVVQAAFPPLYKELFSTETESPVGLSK
The experiment in a line: Luciferase reporter gene assay of inhibitory effect against RORγ transcriptional activity (GAL4-hRORγ plasmid in CHO cells). Type of assay: cell-based. In general terms: Reporter assays use an easily measured gene product as a stand-in for the process of interest.

Assay [2] concerns the target T2, mouse RORγ (Mus musculus, UniProt P51450).
T2 construct: mouse, NM_011281.2 and from Ile251 to Lys516; expressed in transfected cells; host or cells: CHO cells (transient co-transfection with pG5-Luc reporter)
T2 sequence (P51450 251-516): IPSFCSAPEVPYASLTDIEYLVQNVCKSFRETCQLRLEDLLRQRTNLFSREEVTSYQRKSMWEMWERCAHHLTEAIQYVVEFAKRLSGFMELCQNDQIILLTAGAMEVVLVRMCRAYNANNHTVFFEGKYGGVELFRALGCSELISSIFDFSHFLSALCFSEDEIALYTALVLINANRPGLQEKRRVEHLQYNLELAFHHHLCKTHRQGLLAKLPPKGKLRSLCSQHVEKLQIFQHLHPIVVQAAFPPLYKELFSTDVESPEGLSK
The experiment in a line: Luciferase reporter gene assay of inhibitory effect against RORγ transcriptional activity (GAL4-mRORγ plasmid in CHO cells). Type of assay: cell-based. A digest of the protocol: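 Readout is intracellular luciferase after 2-day compound exposure (8 concentrations, 0.1% DMSO) in CHO cells expressing GAL4 fused to mouse RORγ LBD residues Ile251–Lys516 plus pG5-Luc reporter. EC50 fitted from %-of-control; points showing resazurin-detected cytotoxicity dropped.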

For orientation: EC50 means the concentration needed to bring the measured effect to its halfway point.

Where two headings read alike, the source gives them in different places.

Regarding `Cc1c(F)ccc(NC(=O)C[C@H](CCO)c2nnc([C@H]3C[C@@H](CC(C)C)C3)n2C2CC2)c1C` [Example F-623], the EC50 in assay [1] (read-out: LUC EC50 hRORg) and in assay [2] (read-out: LUC EC50 mRORg) was below 3 µM throughout.

Regarding `Cc1ccc(NC(=O)CC(Cc2cccc(=O)[nH]2)c2nnc([C@H]3C[C@@H](CC(C)C)C3)n2C2CC2)c(C)c1` (mixture of isomers) [Example F-505], the results for the EC50 in assay [1] (read-out: LUC EC50 hRORg) and in assay [2] (read-out: LUC EC50 mRORg) were below 3 µM and above 3 µM, respectively.

In the case of `CCn1c(CCC(=O)Nc2cccc3ccccc23)nnc1CCC1CCCCC1` [Example F-13], the EC50 in assay [1] (read-out: LUC EC50 (μM) hRORg) and in assay [2] (read-out: LUC EC50 (μM) mRORg) was below 3 µM each time.

Turning to `Cc1ccc(NC(=O)CCc2nnc([C@H]3C[C@@H](CC4CCCC4)C3)n2C2CC2)c(C)c1` [Example F-424], the EC50 in assay [1] (read-out: LUC EC50 (μM) hRORg) and in assay [2] (read-out: LUC EC50 (μM) mRORg) was below 3 µM in each case.

As to `CC(C)CCc1nnc(CCC(=O)NCc2cccc3[nH]ncc23)n1C1CC1` [Example F-128], the EC50 in assay [1] (read-out: LUC EC50 (μM) hRORg) and in assay [2] (read-out: LUC EC50 (μM) mRORg) was above 3 µM throughout.

As for `Cc1c(Cl)cccc1NC(=O)CCc1nnc(CC[C@H]2CC[C@H](C(=O)O)CC2)n1C1CC1` [Example F-243], the EC50 is below 3 µM in assay [1] (read-out: LUC EC50 (μM) hRORg) and above 3 µM in assay [2] (read-out: LUC EC50 (μM) mRORg).

Regarding `CC(C)CCc1nnc(CCC(=O)Nc2ccccc2Cl)n1C1CC1` [Example F-93], the EC50 in assay [1] (read-out: LUC EC50 (μM) hRORg) and in assay [2] (read-out: LUC EC50 (μM) mRORg) was above 3 µM each time.

In the case of `CC(F)(F)c1c([C@@H](CCC(=O)O)CC(=O)Nc2ccc(Cl)cc2F)noc1-c1cc(C(F)(F)C(C)(C)C)on1` [Example E-66], the EC50 in assay [1] (read-out: LUC EC50 (μM) hRORg) and in assay [2] (read-out: LUC EC50 (μM) mRORg) was below 3 µM throughout.

Regarding `Cc1c(Cl)cccc1NC(=O)CCc1nnc(CCN(C)C(C)(C)C)n1C1CC1` [Example F-294], the EC50 in assay [1] (read-out: LUC EC50 (μM) hRORg) and in assay [2] (read-out: LUC EC50 (μM) mRORg) was above 3 µM each time.

As for `Cc1c(Cl)cccc1NC(=O)CCc1nnc(CC(C)C)n1C1CC1` [Example F-107], the EC50 in assay [1] (read-out: LUC EC50 (μM) hRORg) and in assay [2] (read-out: LUC EC50 (μM) mRORg) was above 3 µM in each case.

As to `CCOC(=O)CO[C@@H](CC(=O)Nc1ccc(C)cc1C)c1nnc([C@H]2C[C@@H](CC(C)C)C2)n1C1CC1` [Example F-433], the EC50 in assay [1] (read-out: LUC EC50 (μM) hRORg) and in assay [2] (read-out: LUC EC50 (μM) mRORg) was below 3 µM throughout.

As for `COC(=O)N1C[C@H](C(=O)Nc2ccc(C)cc2C)[C@@H](c2nnc(CCCC(C)(C)C)n2C2CC2)C1` (racemic) [Example F-399], the EC50 in assay [1] (read-out: LUC EC50 (μM) hRORg) and in assay [2] (read-out: LUC EC50 (μM) mRORg) was below 3 µM in each case.

With `Cc1ccc(NC(=O)C[C@H](C[C@H](C)O)c2nnc([C@H]3C[C@@H](CC(C)C)C3)n2C2CC2)c(C)c1` [Example F-574], the EC50 in assay [1] (read-out: LUC EC50 hRORg) and in assay [2] (read-out: LUC EC50 mRORg) was below 3 µM throughout.

As for `CC(=O)N1C[C@H](C(=O)Nc2ccc(C)cc2C)[C@@H](c2nnc([C@H]3C[C@H](OC(C)C)C3)n2C2CC2)C1` [Example F-334], the EC50 in assay [1] (read-out: LUC EC50 (μM) hRORg) and in assay [2] (read-out: LUC EC50 (μM) mRORg) was below 3 µM each time.

As for `Cc1ccc(NC(=O)C[C@H](NC(C)C)c2nnc([C@H]3C[C@@H](CC(C)C)C3)n2C2CC2)c(C)c1` [Example F-536], the EC50 in assay [1] (read-out: LUC EC50 hRORg) and in assay [2] (read-out: LUC EC50 mRORg) was below 3 µM each time.

Take `COc1cccc(C)c1NC(=O)CCc1nnc(CCC(C)C)n1C1CC1` [Example F-86]: the 50% effective concentration (EC50) in assay [1] (read-out: LUC EC50 (μM) hRORg) and in assay [2] (read-out: LUC EC50 (μM) mRORg) was above 3 µM each time.

Take `CC(=O)N1C[C@H](C(=O)Nc2ccc(C)cc2C)[C@@H](c2nnc(-c3cc(CC(C)(C)C)on3)n2C2CC2)C1` [Example F-631]: the concentration for a half-maximal effect (EC50) in assay [1] (read-out: LUC EC50 hRORg) and in assay [2] (read-out: LUC EC50 mRORg) was below 3 µM in each case.

For the molecule `Cc1ccc(NC(=O)C[C@H](CCO)c2nnc(-c3cc(CCC(C)C)on3)n2C2CC2)c(C)c1` [Example F-615], the EC50 in assay [1] (read-out: LUC EC50 hRORg) and in assay [2] (read-out: LUC EC50 mRORg) was below 3 µM in each case.

`CC(C)CCc1nnc(CCC(=O)N[C@H](C)c2ccccc2)n1C1CC1` [Example F-63]: the EC50 in assay [1] (read-out: LUC EC50 (μM) hRORg) and in assay [2] (read-out: LUC EC50 (μM) mRORg) was above 3 µM throughout.

Consider `Cc1ccc(NC(=O)CC(CC(C)C)c2nnc(CCCC(C)(C)C)n2C2CC2)c(C)c1` (racemic) [Example F-438], for which the EC50 in assay [1] (read-out: LUC EC50 (μM) hRORg) and in assay [2] (read-out: LUC EC50 (μM) mRORg) was below 3 µM in each case.

For the molecule `Cc1ccc(NC(=O)CCc2noc(C(O)c3cc(C(C)(C)C)no3)c2C2CC2)c(Cl)c1` (racemic) [Example F-744], the values for the EC50 in assay [1] (read-out: LUC EC50 hRORg) and in assay [2] (read-out: LUC EC50 mRORg) were above 3 µM and below 3 µM, respectively.
